Reference: the supplement of paper PMC8960247
± gives the standard error.

What was measured:
621-103 (TSC2-rescued) = assay: relative viability vs DMSO; higher = less cytotoxic; conditions: serum: 10% FBS, 72 h
621-102 (TSC2-deficient) = assay: as above; conditions: serum: 10% FBS, 72 h
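Note: immortalized renal angiomyolipoma cells stably carrying empty vector or TSC2, dosed in 384-well plates in DMEM, viability normalized to vehicle-treated wells within each plate.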

Row | Compound | relative viability (621-103 (TSC2-rescued); 0.0001 µM) [%] | relative viability (621-103 (TSC2-rescued); 0.001 µM) [%] | relative viability (621-103 (TSC2-rescued); 0.01 µM) [%] | relative viability (621-103 (TSC2-rescued); 0.1 µM) [%] | relative viability (621-103 (TSC2-rescued); 1 µM) [%] | relative viability (621-103 (TSC2-rescued); 10 µM) [%] | relative viability (621-102 (TSC2-deficient); 0.0001 µM) [%] | relative viability (621-102 (TSC2-deficient); 0.001 µM) [%] | relative viability (621-102 (TSC2-deficient); 0.01 µM) [%] | relative viability (621-102 (TSC2-deficient); 0.1 µM) [%] | relative viability (621-102 (TSC2-deficient); 1 µM) [%] | relative viability (621-102 (TSC2-deficient); 10 µM) [%]
1 | CC(C)OC(=O)C1=CN(C(=O)c2ccc(F)c(F)c2)CC(C)(C)c2c1[nH]c1ccccc21 | 102.7 ± 0.95 | 104 ± 1.7 | 98.4 ± 1.8 | 99 ± 2.6 | 94.1 ± 5.9 | 99.22 ± 0.99 | 111 ± 1.3 | 106.3 ± 0.78 | 104 ± 1.6 | 102 ± 6.7 | 101 ± 2.5 | 101 ± 3.1
2 | CC1(COc2ccc3c(c2)ncn3-c2ccc3cccc(N4CCC(N)CC4)c3n2)COC1 | 96 ± 0.22 | 111.5 ± 0.64 | 110 ± 3.6 | 106 ± 3.9 | 77.4 ± 2.8 | 4.95 ± 0.59 | 109 ± 1.2 | 98.7 ± 1.8 | 109 ± 4.7 | 98.43 ± 0.71 | 67.8 ± 1.8 | 2.96 ± 0.37
3 | CC1=NN(c2ccc(C)c(C)c2)C(=O)/C1=N\Nc1cccc(-c2cccc(C(=O)O)c2)c1O | 99.1 ± 1.1 | 103 ± 3.9 | 100.9 ± 0.81 | 99.8 ± 1 | 106.9 ± 0.69 | 90.7 ± 4 | 106.5 ± 0.35 | 104 ± 3.9 | 98.5 ± 2.5 | 108.4 ± 0.85 | 100.7 ± 0.44 | 83.7 ± 3.2
4 | CN(C)C(=O)[C@H](O)[C@H](Cc1ccccc1)NC(=O)c1cc2cc(Cl)ccc2[nH]1 | 112.8 ± 0.78 | 108 ± 2.3 | 108.2 ± 0.39 | 106 ± 1.7 | 106 ± 1.5 | 104 ± 1.8 | 103 ± 1.9 | 94.3 ± 1 | 111 ± 2.4 | 110 ± 5.4 | 89.6 ± 3.6 | 111.8 ± 0.78
5 | CN(C)Cc1cccc(N/C(=C2\C(=O)Nc3cc(C(N)=O)ccc32)c2ccccc2)c1 | 99.8 ± 1.5 | 97.2 ± 1.9 | 99.2 ± 1.1 | 97.28 ± 0.78 | 92.4 ± 6.5 | 84.9 ± 2.5 | 103 ± 1.7 | 107 ± 0.88 | 104 ± 2 | 103 ± 2.6 | 99.92 ± 0.15 | 87.26 ± 0.14
6 | CN(C)Cc1cccc(N=C(c2ccccc2)c2c(O)[nH]c3cc(C(=O)N(C)C)ccc23)c1 | 98.05 ± 0.44 | 99.6 ± 1.7 | 98.8 ± 1.2 | 99.48 ± 0.73 | 91.7 ± 5.7 | 47.4 ± 2.2 | 107 ± 1.5 | 106 ± 1.2 | 102 ± 1.4 | 100.76 ± 0.028 | 98.5 ± 6.6 | 93.3 ± 1.4
7 | CN(C)c1ccc(-c2nc3ncc(Cl)c(N4CCN(CC(=O)Nc5nccs5)CC4)c3[nH]2)cc1 | 101 ± 2.5 | 103.4 ± 0.042 | 101.06 ± 0.096 | 100.6 ± 0.64 | 97.243 ± 0.044 | 47.5 ± 2.9 | 104 ± 2.7 | 96.7 ± 1.2 | 102 ± 4 | 105 ± 1.4 | 101 ± 4.3 | 49.3 ± 1.4
8 | CNC(=O)Nc1ccc(-c2nc(N3CC4CCC(C3)O4)c3cnn(C4CCC5(CC4)OCCO5)c3n2)cc1 | 108 ± 6.1 | 95.7 ± 2.1 | 73.8 ± 4.8 | 44.1 ± 1.1 | 34.1 ± 0.59 | 22 ± 0.064 | 97.36 ± 0.31 | 93.4 ± 2.7 | 76.3 ± 3.4 | 37.41 ± 0.17 | 25.6 ± 0.73 | 9.06 ± 0.58
9 | COC(=O)N[C@H](C(=O)N1CCC[C@H]1c1ncc(-c2ccc(-c3ccc(-c4cnc([C@@H]5CCCN5C(=O)[C@@H](NC(=O)OC)C(C)C)[nH]4)cc3)cc2)[nH]1)C(C)C | 100 ± 2.7 | 98.82 ± 0.6 | 100 ± 1.2 | 102 ± 2.3 | 99.4 ± 2.4 | 94.1 ± 1.9 | 103 ± 3.2 | 105 ± 0.22 | 106 ± 1.6 | 101 ± 3.8 | 96.21 ± 0.14 | 81.1 ± 2
